The record followed here is ChEMBL document CHEMBL3091294, “Design, synthesis and evaluation of novel 4-dimethylamine flavonoid derivatives as potential multi-functional anti-Alzheimer agents” (Bioorg Med Chem, 2013).

Assay [1] has as its target Amyloid-beta precursor protein (Homo sapiens) (UniProt P05067). Briefly: Inhibition of amyloid beta (1 to 42) aggregation (unknown origin) at 20 uM after 48 hrs by thioflavin-T fluorescence assay relative to control.
A short description of assay [2]: Antioxidant activity assessed as trolox equivalent of peroxyl radical scavenging activity at 1 to 5 uM after 15 mins by oxygen radical absorbance capacity-fluorescein assay. It is filed as functional.
For a further assay, the target named is Cholinesterase (Equus caballus, UniProt P81908).
Assay [3] concerns the target T1, Acetylcholinesterase (Electrophorus electricus, UniProt O42275).
Description: Inhibition of electric eel AChE using acetylthiocholine chloride as substrate incubated for 15 mins prior to substrate addition by Ellman's method
Assay [4] concerns the target T1, Acetylcholinesterase. The experiment in a line: Mixed-type inhibition of electric eel AChE using acetylthiocholine chloride as substrate incubated for 15 mins prior to substrate addition by Lineweaver-Burk plot analysis.

As a reminder, the inhibition is the change of the read-out against control, counted positive when it falls. Higher therefore signals strong suppression. As a reminder, the pIC50 is the negative decadic logarithm of the IC50, by convention in mol/L. For orientation: pKi means the negative decadic logarithm of the Ki, by convention in mol/L. Low values mean a high Ki, high ones a low Ki.

pIC50, pKi: −log10 of the molar value.

Sequence of Amyloid-beta precursor protein (Homo sapiens) (P05067 whole entry): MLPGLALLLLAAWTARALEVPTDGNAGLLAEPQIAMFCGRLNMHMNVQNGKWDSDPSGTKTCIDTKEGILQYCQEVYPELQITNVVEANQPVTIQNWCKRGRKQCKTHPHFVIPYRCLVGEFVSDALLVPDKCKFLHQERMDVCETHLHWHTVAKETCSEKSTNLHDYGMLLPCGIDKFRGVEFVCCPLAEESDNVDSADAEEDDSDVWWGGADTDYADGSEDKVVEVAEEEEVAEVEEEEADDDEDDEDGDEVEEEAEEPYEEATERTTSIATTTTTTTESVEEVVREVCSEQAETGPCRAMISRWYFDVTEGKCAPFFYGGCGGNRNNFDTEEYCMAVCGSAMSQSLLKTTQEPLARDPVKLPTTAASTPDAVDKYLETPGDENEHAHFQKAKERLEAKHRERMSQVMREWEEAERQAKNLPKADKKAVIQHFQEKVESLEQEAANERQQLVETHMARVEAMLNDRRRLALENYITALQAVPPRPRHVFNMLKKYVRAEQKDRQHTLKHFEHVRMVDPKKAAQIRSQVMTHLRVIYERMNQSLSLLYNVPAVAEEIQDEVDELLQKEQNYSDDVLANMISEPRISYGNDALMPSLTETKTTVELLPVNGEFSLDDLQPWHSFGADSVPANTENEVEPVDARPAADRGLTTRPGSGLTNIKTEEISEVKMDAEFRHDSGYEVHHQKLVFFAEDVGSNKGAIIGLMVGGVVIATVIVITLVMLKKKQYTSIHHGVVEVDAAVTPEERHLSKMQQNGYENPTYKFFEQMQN
T1 sequence (O42275 whole entry): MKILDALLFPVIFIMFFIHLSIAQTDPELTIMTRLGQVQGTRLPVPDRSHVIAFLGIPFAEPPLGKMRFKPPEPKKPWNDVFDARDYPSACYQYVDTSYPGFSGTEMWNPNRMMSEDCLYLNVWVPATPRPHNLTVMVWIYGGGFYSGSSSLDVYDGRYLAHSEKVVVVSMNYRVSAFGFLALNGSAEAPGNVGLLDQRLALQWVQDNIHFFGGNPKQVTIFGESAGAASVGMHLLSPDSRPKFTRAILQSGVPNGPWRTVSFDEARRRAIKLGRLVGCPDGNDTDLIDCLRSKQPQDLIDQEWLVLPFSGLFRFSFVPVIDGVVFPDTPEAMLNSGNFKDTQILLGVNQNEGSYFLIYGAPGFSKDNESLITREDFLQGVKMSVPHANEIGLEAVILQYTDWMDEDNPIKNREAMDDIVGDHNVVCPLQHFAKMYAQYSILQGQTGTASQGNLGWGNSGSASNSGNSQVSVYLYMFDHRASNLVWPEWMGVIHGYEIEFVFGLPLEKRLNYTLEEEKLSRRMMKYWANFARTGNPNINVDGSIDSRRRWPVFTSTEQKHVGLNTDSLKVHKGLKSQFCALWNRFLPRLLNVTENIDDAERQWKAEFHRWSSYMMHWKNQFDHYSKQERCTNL
Sequence of Cholinesterase (P81908 whole entry): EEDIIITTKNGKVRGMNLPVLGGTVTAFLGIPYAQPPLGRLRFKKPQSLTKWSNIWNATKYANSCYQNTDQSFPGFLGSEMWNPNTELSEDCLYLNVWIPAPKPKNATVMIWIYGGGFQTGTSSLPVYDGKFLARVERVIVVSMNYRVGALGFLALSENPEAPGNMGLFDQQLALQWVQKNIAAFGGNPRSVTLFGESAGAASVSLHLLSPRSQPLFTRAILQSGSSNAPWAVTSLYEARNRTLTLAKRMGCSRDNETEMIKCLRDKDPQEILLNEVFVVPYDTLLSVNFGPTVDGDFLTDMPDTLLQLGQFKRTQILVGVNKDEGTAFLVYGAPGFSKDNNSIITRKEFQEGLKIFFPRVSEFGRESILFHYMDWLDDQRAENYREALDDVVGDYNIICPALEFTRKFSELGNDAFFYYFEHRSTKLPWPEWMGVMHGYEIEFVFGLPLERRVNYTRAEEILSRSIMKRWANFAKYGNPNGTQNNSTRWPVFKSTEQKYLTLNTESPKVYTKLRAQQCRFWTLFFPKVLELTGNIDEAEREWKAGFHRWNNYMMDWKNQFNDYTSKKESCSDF

With `CN(CCCCCCCCOc1ccc2c(=O)cc(-c3ccc(N(C)C)cc3)oc2c1)Cc1ccccc1`, the inhibition in assay [1] was found to be 39.5%. Besides, in assay [2], the Activity came to 1.5. For the same compound, the pIC50 was less than 4.30 against Cholinesterase and 4.62 against Acetylcholinesterase [3].
Regarding `CCN(CC)CCCCOc1ccc2c(=O)cc(-c3ccc(N(C)C)cc3)oc2c1`, the inhibition in assay [1] was 33.2%. Also, the pIC50 at Cholinesterase was 5.10; against Acetylcholinesterase [3], 5.65.
Consider `CCN(CC)CCCCCCCCCCOc1ccc2c(=O)cc(-c3ccc(N(C)C)cc3)oc2c1`, for which the inhibition in assay [1] stood at 33.4%. Besides, the Activity in assay [2] was 1.5. Besides, the pIC50 against Cholinesterase is 5.64; at Acetylcholinesterase [3] it was 5.43.
On to `CCN(CC)CCCCCCCCOc1ccc2c(=O)cc(-c3ccc(N(C)C)cc3)oc2c1`, for which the pKi on Acetylcholinesterase [4] was 6.41. Also, the inhibition in assay [1] came to 45.8%. Also, the Activity in assay [2] amounted to 1.5. In addition, the pIC50 on Cholinesterase is 5.30; against Acetylcholinesterase [3], 5.74.
In the case of `CN(C)c1ccc(-c2cc(=O)c3ccc(OCCCCCCN4CCCCC4)cc3o2)cc1`, the inhibition in assay [1] stood at 25.4%. The pIC50 against Cholinesterase is 5.26; on Acetylcholinesterase [3], 5.17.
Regarding `CN(C)c1ccc(-c2cc(=O)c3ccc(OCCCCN4CCCC4)cc3o2)cc1`, in assay [1], the inhibition came to 36.6%. The pIC50 on Cholinesterase was 5.21; at Acetylcholinesterase [3], 5.56.
`CN(C)c1ccc(-c2cc(=O)c3ccc(OCCCCCCCCN4CCCC4)cc3o2)cc1` showed an inhibition in assay [1] of 42.1%. The Activity in assay [2] was 1.5. The results for the pIC50 against Cholinesterase and at Acetylcholinesterase [3] were 5.59 and 5.70, respectively.
Turning to `CN(CCCCCCCCCCCCOc1ccc2c(=O)cc(-c3ccc(N(C)C)cc3)oc2c1)Cc1ccccc1`, the inhibition in assay [1] amounted to 48.1%. The pIC50 against Cholinesterase is less than 4.30; against Acetylcholinesterase [3], 4.48.
The like results for `CCN(CC)CCCCCCOc1ccc2c(=O)cc(-c3ccc(N(C)C)cc3)oc2c1` were, in that order, 38.1%, 5.34 and 5.51.
Compound `CN(CCCCOc1ccc2c(=O)cc(-c3ccc(N(C)C)cc3)oc2c1)Cc1ccccc1` displayed an inhibition in assay [1] of 39.1%. For the same compound, the pIC50 on Cholinesterase was less than 4.30; at Acetylcholinesterase [3], 5.08.
Compound `CN(C)c1ccc(-c2cc(=O)c3ccc(OCCCCN4CCCCC4)cc3o2)cc1` gave an inhibition in assay [1] of 30.6%. For the same compound, the pIC50 against Cholinesterase was 5.21; on Acetylcholinesterase [3], 5.52.
Consider `CN(CCCCCCOc1ccc2c(=O)cc(-c3ccc(N(C)C)cc3)oc2c1)Cc1ccccc1`, for which the inhibition in assay [1] stood at 46.5%. Besides, the negative logarithm of the IC50 (pIC50) was less than 4.30 against Cholinesterase and 5.11 against Acetylcholinesterase [3].
For `CN(CCCCCCCCCCOc1ccc2c(=O)cc(-c3ccc(N(C)C)cc3)oc2c1)Cc1ccccc1`, in assay [1], the inhibition stood at 29.4%. Moreover, the Activity in assay [2] was determined as 1.5. For the same compound, the pIC50 is less than 4.30 against Cholinesterase and 4.94 at Acetylcholinesterase [3].
As to `CN(C)c1ccc(-c2cc(=O)c3ccc(OCCCCN4CCOCC4)cc3o2)cc1`, in assay [1], the inhibition turned out to be 44.7%. Further, the pIC50 against Cholinesterase is 5.00; on Acetylcholinesterase [3] it was less than 4.30.
In assay [1], `CN(C)c1ccc(-c2cc(=O)c3ccc(OCCCCCCN4CCCC4)cc3o2)cc1` yielded an inhibition of 32.6%. Moreover, the negative logarithm of the IC50 (pIC50) was 4.94 on Cholinesterase and 5.04 against Acetylcholinesterase [3].
Turning to `CN(C)c1ccc(-c2cc(=O)c3ccc(OCCCCCCCCN4CCCCC4)cc3o2)cc1`, the inhibition in assay [1] was determined as 34.8%. Also, in assay [2], the Activity was found to be 1.5. Besides, the pIC50 was 5.06 against Cholinesterase and 5.10 against Acetylcholinesterase [3].
On the same counts, the results for `CN(C)c1ccc(-c2cc(=O)c3ccc(OCCCCCCCCCCN4CCCC4)cc3o2)cc1` are 38.6%, 1.5, 6.09 and 5.65.
On the same counts, the results for `CN(C)c1ccc(-c2cc(=O)c3ccc(OCCCCCCCCCCN4CCCCC4)cc3o2)cc1` are 40.7%, 1.5, 5.62 and less than 4.30.
